Results as given in publication PMC10620989, “Going beyond Binary: Rapid Identification of Protein–Protein Interaction Modulators Using a Multifragment Kinetic Target-Guided Synthesis Approach” (Journal of Medicinal Chemistry, 2023).
Values joined by “and” are separate entries in the source; they are usually repeats but may differ in a detail not shown here. Identical values can stand only once. Like-named read-outs stand apart in the source and are kept apart here.

Columns and labels:
[1] = target: GST-tagged mouse Mcl-1-(152–309) (Mus musculus, UniProt P97287); experiment: Fluorescence polarization competitive binding assay, GST-Mcl-1 / FITC-Bim-BH3; design: selectivity index: reference not given here; settings: for inhibition at 50 µM: compound at 50 µM
Chain of GST-tagged mouse Mcl-1-(152–309) (P97287 152-309): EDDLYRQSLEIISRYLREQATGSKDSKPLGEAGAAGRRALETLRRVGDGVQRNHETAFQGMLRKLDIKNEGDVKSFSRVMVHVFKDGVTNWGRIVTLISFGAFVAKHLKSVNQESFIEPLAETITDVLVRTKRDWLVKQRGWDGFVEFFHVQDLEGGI

[2] = target: GST-Bcl-XL (Homo sapiens, UniProt Q07817); experiment: Fluorescence polarization assay, GST-Bcl-XL / fluorescein-labeled Bak BH3 peptide; assay type: binding; settings: FP, GST-Bcl-XL and fluorescein-labeled Bak BH3 peptide; ND = not detected
Chain of GST-Bcl-XL (Q07817 whole entry, the tested form may be a part): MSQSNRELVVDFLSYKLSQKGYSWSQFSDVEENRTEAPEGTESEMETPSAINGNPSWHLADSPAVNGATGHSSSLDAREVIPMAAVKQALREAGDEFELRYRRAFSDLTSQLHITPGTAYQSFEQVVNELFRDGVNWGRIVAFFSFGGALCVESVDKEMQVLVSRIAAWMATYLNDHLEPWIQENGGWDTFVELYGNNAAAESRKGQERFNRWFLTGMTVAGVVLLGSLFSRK

[3] = target: T1, Mcl-1 (Mus musculus, UniProt P97287); experiment: Multifragment KTGS screen against Mcl-1 (5 TA x 38 SZ per well), LC-MS/MS; settings: multifragment KTGS, 190 combinations per well, 10 μM Mcl-1, 20 μM each fragment, pH 7.4, 37 °C, 10 h; peak area with protein / without protein
T1 sequence (P97287 whole entry, the tested form may be a part): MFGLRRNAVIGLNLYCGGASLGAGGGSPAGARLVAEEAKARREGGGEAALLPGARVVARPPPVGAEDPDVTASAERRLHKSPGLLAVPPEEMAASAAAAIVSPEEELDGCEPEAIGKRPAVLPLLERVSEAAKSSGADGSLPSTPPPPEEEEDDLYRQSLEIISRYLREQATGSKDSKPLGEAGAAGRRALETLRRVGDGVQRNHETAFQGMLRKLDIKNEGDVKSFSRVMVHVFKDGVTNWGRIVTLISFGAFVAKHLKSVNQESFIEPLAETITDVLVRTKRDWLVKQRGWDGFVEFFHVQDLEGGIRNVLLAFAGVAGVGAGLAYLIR

[4] = target: T1, Mcl-1; experiment: Binary KTGS incubation (1 TA x 1 SZ) with Mcl-1, LC-MS/MS; settings: binary incubation mixtures with and without Mcl-1
[5] = FP, GST-Mcl-1 and fluorescein-labeled Bim BH3 peptide, read-out: IC50 on Mcl-1

Row | IC50 [1, 5] | inhibition at 50 µM ([1]; FP) [%] | selectivity index ([1]; quotient of the IC50 toward Bcl-XL over the IC50 toward Mcl-1) | Amplification coefficient 5TA x 38SZ [3] | Amplification coefficient 1TA x 1SZ [4] | IC50 on Bcl-XL [2] | SMILES | IC50 [2] | IC50 ([1]; IC50 on Mcl-1) [µM] | selectivity index [1]
1 | 61 µM and 60.6 µM | 44.7 | 0.03 | 8 | 10 | – | O=C(NS(=O)(=O)c1ccc(NCCSc2ccccc2)c([N+](=O)[O-])c1)c1ccc(CCc2ccccn2)cc1 [SZ4TA17, O=C(NS(C1=CC=C(NCCSC2=CC=CC=C2)C([N+]([O-])=O)=C1)(=O)=O)C3=CC=C(CCC4=NC=CC=C4)C=C3] | 2.1 µM and 2.08 µM | – | –
2 | 26.1 µM | 80.7 | – | 20 | 4 | – | O=C(NS(=O)(=O)c1ccc(NCCSc2ccccc2)c([N+](=O)[O-])c1)c1ccc2c(ccn2Cc2ccc(C(F)(F)F)cc2C(F)(F)F)c1 [SZ4TA30, O=C(NS(C1=CC=C(NCCSC2=CC=CC=C2)C([N+]([O-])=O)=C1)(=O)=O)C3=CC(C=CN4CC5=CC=C(C(F)(F)F)C=C5C(F)(F)F)=C4C=C3] | > 50 µM | – | –
3 | 13.6 µM | 89.4 | – | 9 | 6 | below the detectable threshold | O=C(NS(=O)(=O)c1ccc(CNc2cccc([N+](=O)[O-])c2)cc1)c1ccc(CN2C(=O)C(c3ccc(F)cc3F)=C(c3ccc(F)cc3F)C2=O)cc1 [SZ12TA42, O=C(NS(C1=CC=C(CNC2=CC=CC([N+]([O-])=O)=C2)C=C1)(=O)=O)C3=CC=C(CN4C(C(C5=C(F)C=C(F)C=C5)=C(C6=CC=C(F)C=C6F)C4=O)=O)C=C3] | – | – | –
4 | – | 34.5 | – | 16 | 20 | – | COc1cccc(CN(CCSc2ccccc2)Cc2ccc(S(=O)(=O)NC(=O)c3ccc4c(c3)c(C(=O)c3cccs3)cn4C)cc2)c1 [SZ17TA45, O=C(NS(C1=CC=C(CN(CCSC2=CC=CC=C2)CC3=CC(OC)=CC=C3)C=C1)(=O)=O)C4=CC(C(C(C5=CC=CS5)=O)=CN6C)=C6C=C4] | – | – | –
5 | – | 42.8 | – | 7 | 4 | – | CCOc1ccc(-c2ccc3c(c2)c(C(=O)NS(=O)(=O)c2cccc4c(N(C)C)cccc24)cn3C)cc1F [SZ21TA23, O=C(NS(C1=CC=CC2=C1C=CC=C2N(C)C)(=O)=O)C(C3=C4C=CC(C5=CC=C(OCC)C(F)=C5)=C3)=CN4C] | – | – | –
6 | 9.4 µM | > 99 | – | 15 | 7 | – | Cc1nc(-c2ccccc2)sc1C(=O)NS(=O)(=O)c1ccc(CN(CCSc2ccccc2)Cc2ccc3c(c2)OCO3)cc1 [SZ31TA3, O=C(NS(C1=CC=C(CN(CCSC2=CC=CC=C2)CC3=CC(OCO4)=C4C=C3)C=C1)(=O)=O)C5=C(C)N=C(C6=CC=CC=C6)S5] | – | – | –
7 | 5.9 µM | > 99 | – | 7 | 4 | – | O=C(NS(=O)(=O)c1ccc(CN(CCSc2ccccc2)Cc2ccc3c(c2)OCO3)cc1)c1ccc(OC(F)(F)F)cc1 [SZ31TA8, O=C(NS(C1=CC=C(CN(CCSC2=CC=CC=C2)CC3=CC(OCO4)=C4C=C3)C=C1)(=O)=O)C5=CC=C(OC(F)(F)F)C=C5] | – | – | –
8 | – | 59.5 | – | 10 | 4 | – | O=C(NS(=O)(=O)c1ccc(CN(CCSc2ccccc2)Cc2ccc3c(c2)OCO3)cc1)c1ccc(-c2ccc(F)cc2)cc1 [SZ31TA14, O=C(NS(C1=CC=C(CN(CC2=CC(OCO3)=C3C=C2)CCSC4=CC=CC=C4)C=C1)(=O)=O)C5=CC=C(C6=CC=C(F)C=C6)C=C5] | – | – | –
9 | – | -52.4 | – | 56 | 8 | – | Cn1cc(C(=O)C2CCCCC2)c2cc(C(=O)NS(=O)(=O)c3ccc(CN(CCSc4ccccc4)Cc4ccc5c(c4)OCO5)cc3)ccc21 [SZ31TA40, O=C(NS(C1=CC=C(CN(CCSC2=CC=CC=C2)CC3=CC(OCO4)=C4C=C3)C=C1)(=O)=O)C5=CC=C6C(C(C(C7CCCCC7)=O)=CN6C)=C5] | – | – | –
10 | – | 40.2 | – | 25 | 6 | – | Cn1cc(C(=O)c2cccs2)c2cc(C(=O)NS(=O)(=O)c3ccc(CN(CCSc4ccccc4)Cc4ccc5c(c4)OCO5)cc3)ccc21 [SZ31TA45, O=C(NS(C1=CC=C(CN(CC2=CC(OCO3)=C3C=C2)CCSC4=CC=CC=C4)C=C1)(=O)=O)C5=CC(C(C(C6=CC=CS6)=O)=CN7C)=C7C=C5] | – | – | –
11 | – | 89.2 | – | 9 | 9 | – | O=C(NS(=O)(=O)c1ccc(-c2ccc(Oc3ccccc3)cc2)cc1)c1ccc(CCc2ccccn2)cc1 [SZ35TA17, O=C(NS(C1=CC=C(C2=CC=C(OC3=CC=CC=C3)C=C2)C=C1)(=O)=O)C4=CC=C(CCC5=NC=CC=C5)C=C4] | – | – | –

Further lines, the molecule ahead of its results:

Row | SMILES | IC50 [1, 5] | inhibition at 50 µM ([1]; FP) [%] | selectivity index ([1]; quotient of the IC50 toward Bcl-XL over the IC50 toward Mcl-1) | Amplification coefficient 5TA x 38SZ [3] | Amplification coefficient 1TA x 1SZ [4] | IC50 on Bcl-XL [2] | IC50 [2] | IC50 ([1]; IC50 on Mcl-1) [µM] | selectivity index [1]
12 | O=C(NS(=O)(=O)c1ccc(CN(CCSc2ccccc2)Cc2c(F)cccc2Cl)cc1)c1ccccc1 [SZ15TA1, O=C(NS(C1=CC=C(CN(CCSC2=CC=CC=C2)CC3=C(F)C=CC=C3Cl)C=C1)(=O)=O)C4=CC=CC=C4] | – | 92.5 | – | 13 | 5 | – | 29.1 µM | 9.7 | –
13 | Cc1nc(-c2ccccc2)sc1C(=O)NS(=O)(=O)c1ccc(CN(CCSc2ccccc2)Cc2c(F)cccc2Cl)cc1 [SZ15TA3, O=C(NS(C1=CC=C(CN(CCSC2=CC=CC=C2)CC3=C(F)C=CC=C3Cl)C=C1)(=O)=O)C4=C(C)N=C(C5=CC=CC=C5)S4] | – | 95.9 | – | 10 | 5 | – | 36.4 µM | 5.8 | –
14 | COc1cc(OC)cc(C(=O)NS(=O)(=O)c2ccc(CN(CCSc3ccccc3)Cc3c(F)cccc3Cl)cc2)c1 [SZ15TA5, O=C(NS(C1=CC=C(CN(CCSC2=CC=CC=C2)CC3=C(F)C=CC=C3Cl)C=C1)(=O)=O)C4=CC(OC)=CC(OC)=C4] | – | > 99 | – | 9 | 4 | – | 53 µM | 13.4 | 4.0
15 | O=C(NS(=O)(=O)c1ccc(CN(CCSc2ccccc2)Cc2c(F)cccc2Cl)cc1)c1ccc(OC(F)(F)F)cc1 [SZ15TA8, O=C(NS(C1=CC=C(CN(CCSC2=CC=CC=C2)CC3=C(F)C=CC=C3Cl)C=C1)(=O)=O)C4=CC=C(OC(F)(F)F)C=C4] | – | 96.5 | – | 7 | 6 | – | 47 µM | 7.6 | 6.2
16 | O=C(NS(=O)(=O)c1ccc(CN(CCSc2ccccc2)Cc2c(F)cccc2Cl)cc1)c1ccc(CCc2ccccn2)cc1 [SZ15TA17, O=C(NS(C1=CC=C(CN(CCSC2=CC=CC=C2)CC3=C(F)C=CC=C3Cl)C=C1)(=O)=O)C4=CC=C(CCC5=NC=CC=C5)C=C4] | – | 89.5 | – | 7 | 7 | – | 55.9 µM | 20.2 | –
17 | O=C(NS(=O)(=O)c1ccc(CN(CCSc2ccccc2)Cc2c(F)cccc2Cl)cc1)c1ccc(-c2ccccn2)cc1 [SZ15TA25, O=C(NS(C1=CC=C(CN(CCSC2=CC=CC=C2)CC3=C(F)C=CC=C3Cl)C=C1)(=O)=O)C4=CC=C(C5=NC=CC=C5)C=C4] | – | 89 | – | 15 | 4.5 | – | 54.9 µM | 15.3 | –
18 | COc1cccc(CN(CCSc2ccccc2)Cc2ccc(S(=O)(=O)NC(=O)c3sc(-c4ccccc4)nc3C)cc2)c1 [SZ17TA3, O=C(NS(C1=CC=C(CN(CC2=CC(OC)=CC=C2)CCSC3=CC=CC=C3)C=C1)(=O)=O)C4=C(C)N=C(C5=CC=CC=C5)S4] | 8.6 µM | > 99 | – | 25 | 12 | – | 50 µM | – | –
19 | COc1cccc(CN(CCSc2ccccc2)Cc2ccc(S(=O)(=O)NC(=O)c3cccc4ccccc34)cc2)c1 [SZ17TA7, O=C(NS(C1=CC=C(CN(CC2=CC(OC)=CC=C2)CCSC3=CC=CC=C3)C=C1)(=O)=O)C4=C(C=CC=C5)C5=CC=C4] | 20.1 µM | 87.3 | – | 10 | 12 | – | 72 µM | – | –
20 | Cn1cc(C(=O)c2cccs2)c2cc(C(=O)NS(=O)(=O)CCN(CCSc3ccccc3)Cc3ccc4c(c3)OCO4)ccc21 [SZ28TA45, O=C(NS(CCN(CC1=CC=C(OCO2)C2=C1)CCSC3=CC=CC=C3)(=O)=O)C4=CC(C(C(C5=CC=CS5)=O)=CN6C)=C6C=C4] | – | 54 | – | 8 | 5 | – | – | – | –
21 | O=C(NS(=O)(=O)c1ccc(CN(CCSc2ccccc2)Cc2ccc3c(c2)OCO3)cc1)c1cccc(NCCc2ccccc2)c1 [SZ31TA44, O=C(NS(C1=CC=C(CN(CC2=CC(OCO3)=C3C=C2)CCSC4=CC=CC=C4)C=C1)(=O)=O)C5=CC(NCCC6=CC=CC=C6)=CC=C5] | – | 36.5 | – | 10 | 12 | – | – | – | –
22 | O=C(NS(=O)(=O)c1ccc(-c2ccc(Oc3ccccc3)cc2)cc1)c1cccc2ccccc12 [SZ35TA7, O=C(NS(C1=CC=C(C2=CC=C(OC3=CC=CC=C3)C=C2)C=C1)(=O)=O)C4=CC=CC5=C4C=CC=C5] | – | 87.8 | – | 25 | 4 | – | – | – | –
23 | COc1ccc(Cc2ccc(C(=O)NS(=O)(=O)c3ccc(-c4ccc(Oc5ccccc5)cc4)cc3)cc2)c(OC)c1OC [SZ35TA24, O=C(NS(C1=CC=C(C2=CC=C(OC3=CC=CC=C3)C=C2)C=C1)(=O)=O)C4=CC=C(CC5=CC=C(OC)C(OC)=C5OC)C=C4] | – | 76.4 | – | 9 | 8 | – | – | – | –
